The record followed here is patent publication US10213470B2, “Method for treating spinocerebellar ataxias” (NATIONAL TAIWAN NORMAL UNIVERSITY, priority 2015, dated 2019).

In test [1] the test system is ATXN3/Q75 aggregation in 293 ATXN3/Q75-GFP cells. The test is described as follows: ATXN3/Q75 aggregation analysis by high-content analysis in 293 ATXN3/Q75-GFP cells. It counts as cell-based, Human. The following applies: at 100 nM; 8 h pre-treatment, then doxycycline and oxaliplatin 6 days. Here is the method:
(§1) Human 293 ATXN3/Q75-GFP cells were cultured in Dulbecco's modified Eagle's medium (DMEM) containing 10% fetal bovine serum (FBS), 5 μg/mL blasticidin, and 100 μg/mL hygromycin (InvivoGen). Human neuroblastoma SH-SY5Y cells (ATCC No. CRL-2266) were cultured in DMEM F12 supplemented with 10% FBS. Mouse RAW 264.7 macrophages and BV-2 microglia were cultured in DMEM containing 10% FBS. Cells were all cultured in a 37° C. incubator containing 5% CO2.
293 ATXN3/Q75-GFP cells were cultured in 96-well (2×10^4/well) plates for 24 h and treated with different concentrations of suberoylanilide hydroxamic acid (SAHA, Cayman Chemical) (100 nM), Paeonia lactiflora, Glycyrrhiza uralensis, or Shao Yao Kan Tsao Tang (SK Tang) (0.01-10 μg/mL) for 8 h. Next, doxycycline (10 μg/mL, BD) and oxaliplatin (5 μM, Sigma) were added for 6 days. Cells were then stained with Hoechst 33342 (0.1 μg/mL, Sigma-Aldrich). Aggregation was then analyzed by high-content analysis (HCA) system (ImageXpressMICRO, Molecular Devices). The histone deacetylase inhibitor SAHA, known to reduce SDS-insoluble polyQ aggregates, was included for comparison.
To normalize data, the relative aggregation level in untreated cells is set as 100%. […] Good aggregation-inhibitory potential can be seen from Paeonia lactiflora (75-78% at 1-10 μg/mL), Glycyrrhiza uralensis (73-85% at 0.01-1 μg/mL), and SK Tang (79-84% at 0.01-10 μg/mL). […]

The next test deals with NO. As to the kind of experiment: NO secretion in LPS-stimulated RAW 264.7 macrophages (Griess reagent). It is filed as cell-based, Mouse. The note with it: 50 μM, 8 h pre-treatment, LPS 1 μg/mL 20 h. Here is the method:
as §1
(§2) The anti-inflammatory activity of SK Tang was examined using LPS-stimulated RAW 264.7 macrophage and BV-2 microglia. RAW 264.7 cells (10^6) were cultured in 6-well plates for 20 h and pre-treated with celecoxib, which is a nonsteroidal anti-inflammatory drug (named as Cele. in FIGS. 4A-4D) (50 μM) or SK Tang (0.5-2 mg/mL) for 8 h. Next, cells were stimulated by LPS (1 μg/mL) for 20 h. LPS-induced secretions of NO, TNF-α, IL-1β, and IL-6 in RAW 264.7 cells were then determined using Griess reagent or ELISA assay.
(§3) To normalize data, the relative NO/TNF-α/IL-1β/IL-6 level in LPS-stimulated cells is set as 100%. As shown in FIGS. 4A-4D, the exposure of RAW 264.7 cells to LPS results in significant secretions of NO, TNF-α, IL-1β, and IL-6 after 24 h incubation (1-12% vs. 100%, P<0.001). […]

For another test, the system named is IL-1β. The test is described as follows: IL-1β secretion in LPS-stimulated RAW 264.7 macrophages (ELISA). It is filed as cell-based, Mouse. The note with it: 50 μM, 8 h pre-treatment, LPS 1 μg/mL 20 h. Here is the method:
as §1, §2, §3

For another test, the system named is TNF-α. The test is described as follows: TNF-α secretion in LPS-stimulated RAW 264.7 macrophages (ELISA). The note with it: 50 μM, 8 h pre-treatment, LPS 1 μg/mL 20 h. It counts as cell-based, Mouse. As for the experimental part: as §1, §2, §3
For the next test, the system named is IL-6. The test is described as follows: IL-6 secretion in LPS-stimulated RAW 264.7 macrophages (ELISA). It counts as cell-based, Mouse. The following applies: 50 μM, 8 h pre-treatment, LPS 1 μg/mL 20 h. As for the experimental part:
as §1, §2, §3

For the compound `O=C(CCCCCCC(=O)Nc1ccccc1)NO` [SAHA, suberoylanilide hydroxamic acid], the “ATXN3/Q75 aggregation relative to untreated cells (100%)” value in test [1] amounted to 85%.
Turning to `Cc1ccc(-c2cc(C(F)(F)F)nn2-c2ccc(S(N)(=O)=O)cc2)cc1` [celecoxib], the “NO level relative to LPS-stimulated cells (100%)” value with NO is 39%. For the same compound, the “IL-1β level relative to LPS-stimulated cells (100%)” value in the test on IL-1β is 20%. The “TNF-α level relative to LPS-stimulated cells (100%)” value in the test on TNF-α is given as 23%. Moreover, the “IL-6 level relative to LPS-stimulated cells (100%)” value in the test with IL-6 was found to be 29%.
